According to US11166946B2 (CURATIS AG, priority 2018, dated 2021):
Like-named read-outs stand apart in the source and are kept apart here.

Legend:
[1] = system: patients presenting with migraine with aura; assay: Randomized, double-blind, placebo controlled crossover study, aura events; format: in vivo, human
Protocol: A multi-center, randomized, double-blind, placebo controlled crossover study was conducted with picotamide. […] The overall study duration was 7×4 weeks. […] “Aura Events” was one of the parameters that was measured. […] These observations were particularly observed in a subgroup of patients (moderate patients) that on average had 3 to 6 aura events per month prior to study enrollment. Patients with less than 3 aura events per month could be considered mild patients and would therefore benefit to a lesser degree from treatment. Patients with 7 or more aura events could be considered severe patients that are difficult to treat.

[2] = single administration 300 mg, human subjects; cited from earlier work
mouse, rat and dog = settings: cited from earlier work
platelets = settings: in vitro; cited from earlier work
[3] = system: patients with peripheral vascular disease; settings: 300 mg, PO, t.i.d., 18-month period, 2,304 patients; cited from earlier work
mouse = settings: in vivo, cited from earlier work
rat = settings: in vivo, cited from earlier work
[4] = oral administration; biphasic clearance; cited from earlier work

SMILES	number of auras (aura events) ([1]; 300 mg twice daily 3×4 weeks, then placebo (Sequence A))	duration of continued improvement after switch to placebo ([1]; Sequence A, after 3×4 weeks of picotamide)	time to reach maximum concentration (Tmax) [2] [min]	tolerability after subacute and chronic treatment (mouse, rat and dog; IP and PO, mouse, rat and dog)	embryotoxic or teratogenic effects (mouse, rat and dog; in vivo)	inhibition of platelet aggregation, degranulation and TxB2 production (platelets)	effectiveness and safety [3]	LD50 (mouse; ip) [mg/kg]	LD50 (mouse; po)	LD50 (rat; ip) [mg/kg]	LD50 (rat; po)	plasma clearance half-life, first rapid phase [4]
COc1ccc(C(=O)NCc2cccnc2)cc1C(=O)NCc1cccnc1 [picotamide, 4-methoxy-N,N′-bis(pyridin-3-ylmethyl)benzene-1,3-dicarboxamide]	reduces the number of auras even after picotamide administration	continued to improve for another 2×4 weeks	30 to 45	well tolerated	did not induce embryotoxic or teratogenic effects	inhibits in vitro platelet aggregation, degranulation, and TxB2 production, in a dose dependent manner	effective and well-tolerated antiplatelet drug with an incidence of adverse reactions similar to that of placebo	942 ± 29	> 3,000 mg/kg	685 ± 27	> 3,000 mg/kg	
COc1ccc(C(=O)NCc2cccnc2)cc1C(=O)NCc1cccnc1 [picotamide monohydrate]												about 2 hours
